Laboratory results as given in PMC5218480 (PLoS ONE, 2017).

System: MV-4-11 cells
Experiment: Gene expression microarray analysis (Affymetrix PrimeView) and GSEA
Type: cell-based, human
Set-up: RFU PODN (11730768_x_at) / Fold change /veh PODN (11730768_x_at) / RFU LINC00158 (11744669_a_at) / Fold change /veh LINC00158 (11744669_a_at) / RFU DUSP10 (11751237_a_at) / Fold change /veh DUSP10 (11751237_a_at) / RFU ID3 (11757404_x_at) / Fold change /veh ID3 (11757404_x_at) / RFU PLEKHG5 (11737974_s_at) / Fold change /veh PLEKHG5 (11737974_s_at) / RFU LRRC4B (11730491_at) / Fold change /veh LRRC4B (11730491_at) / RFU GIMAP4 (11747438_a_at) / Fold change /veh GIMAP4 (11747438_a_at) / RFU KRT8 (11758183_x_at) / Fold change /veh KRT8 (11758183_x_at) / RFU CNN1 (11734310_a_at) / Fold change /veh CNN1 (11734310_a_at) / RFU VPS37D (11726825_at) / Fold change /veh VPS37D (11726825_at) / RFU C10orf10 (11716522_x_at) / Fold change /veh C10orf10 (11716522_x_at) / RFU KIR2DL2 /// KIR2DL4 /// KIR2DL5A /// KIR2DL5B /// KIR2DS1 /// KIR2DS2 /// KIR2DS3 /// KIR2DS4 /// KIR3DL3 /// KIR3DL3 /// KIR3DS1 (11738374_at) / Fold change /veh KIR2DL2 /// KIR2DL4 /// KIR2DL5A /// KIR2DL5B /// KIR2DS1 /// KIR2DS2 /// KIR2DS3 /// KIR2DS4 /// KIR3DL3 /// KIR3DL3 /// KIR3DS1 (11738374_at) / RFU C1QL1 (11718748_at) / Fold change /veh C1QL1 (11718748_at) / RFU TMPRSS4 (11747572_a_at) / Fold change /veh TMPRSS4 (11747572_a_at) / RFU HAMP (11756126_x_at) / Fold change /veh HAMP (11756126_x_at) / RFU RNFT2 (11725882_a_at) / Fold change /veh RNFT2 (11725882_a_at) / RFU NR4A2 (11747474_a_at) / Fold change /veh NR4A2 (11747474_a_at) / RFU ABCC12 (11746883_a_at) / Fold change /veh ABCC12 (11746883_a_at) / RFU TMEM136 (11760407_x_at) / Fold change /veh TMEM136 (11760407_x_at) / RFU CLDN22 /// WWC2 (11732394_at) / Fold change /veh CLDN22 /// WWC2 (11732394_at) / RFU HLA-DPB1 (11760878_x_at) / Fold change /veh HLA-DPB1 (11760878_x_at) / RFU SPINT1 (11716480_a_at) / Fold change /veh SPINT1 (11716480_a_at) / RFU GAP43 (11754022_s_at) / Fold change /veh GAP43 (11754022_s_at) / RFU A4GNT (11735810_at) / Fold change /veh A4GNT (11735810_at) / RFU PRB3 (11715151_x_at) / Fold change /veh PRB3 (11715151_x_at) / RFU TUBB4B (11761932_at) / Fold change /veh TUBB4B (11761932_at) / RFU CAPN14 (11732068_a_at) / Fold change /veh CAPN14 (11732068_a_at) / RFU TMCC2 (11721928_a_at) / Fold change /veh TMCC2 (11721928_a_at) / RFU IRGQ (11745062_a_at) / Fold change /veh IRGQ (11745062_a_at) / RFU FAM174B (11720279_a_at) / Fold change /veh FAM174B (11720279_a_at) / RFU TMPRSS4 (11748680_a_at) / Fold change /veh TMPRSS4 (11748680_a_at) / RFU FAM212B (11763350_a_at) / Fold change /veh FAM212B (11763350_a_at) / RFU PLEKHG5 (11743358_a_at) / Fold change /veh PLEKHG5 (11743358_a_at) / RFU ZSCAN30 (11745921_a_at) / Fold change /veh ZSCAN30 (11745921_a_at) / RFU CMKLR1 (11741424_a_at) / Fold change /veh CMKLR1 (11741424_a_at) / RFU LOC101060620 /// MAPK8IP1 (11723275_at) / Fold change /veh LOC101060620 /// MAPK8IP1 (11723275_at) / RFU SPTSSB (11747773_x_at) / Fold change /veh SPTSSB (11747773_x_at) / RFU PRSS12 (11739890_at) / Fold change /veh PRSS12 (11739890_at) / RFU BIN1 (11741810_x_at) / Fold change /veh BIN1 (11741810_x_at) / RFU WNT11 (11732464_a_at) / Fold change /veh WNT11 (11732464_a_at) / RFU C10orf10 (11716521_a_at) / Fold change /veh C10orf10 (11716521_a_at) / RFU C5orf56 (11738089_at) / Fold change /veh C5orf56 (11738089_at) / RFU CYB561 (11721691_x_at) / Fold change /veh CYB561 (11721691_x_at) / RFU ANKRD19P (11752326_a_at) / Fold change /veh ANKRD19P (11752326_a_at) / RFU OR2T12 /// OR2T33 /// OR2T8 (11738714_s_at) / Fold change /veh OR2T12 /// OR2T33 /// OR2T8 (11738714_s_at) / RFU VCAN (11748164_a_at) / Fold change /veh VCAN (11748164_a_at) / RFU JSRP1 (11732532_at) / Fold change /veh JSRP1 (11732532_at) / RFU KRTAP10-11 (11738290_x_at) / Fold change /veh KRTAP10-11 (11738290_x_at) / RFU MYO3A (11730013_a_at) / Fold change /veh MYO3A (11730013_a_at) / RFU EBF3 (11725865_a_at) / Fold change /veh EBF3 (11725865_a_at) / RFU CAMK2N1 (11719241_x_at) / Fold change /veh CAMK2N1 (11719241_x_at) / RFU C5orf56 (11738088_a_at) / Fold change /veh C5orf56 (11738088_a_at) / RFU OLFML3 (11715873_a_at) / Fold change /veh OLFML3 (11715873_a_at) / RFU LOC100653217 /// NTM (11731650_a_at) / Fold change /veh LOC100653217 /// NTM (11731650_a_at) / RFU MAPK11 (11762145_a_at) / Fold change /veh MAPK11 (11762145_a_at) / RFU FIZ1 (11724087_x_at) / Fold change /veh FIZ1 (11724087_x_at) / RFU OASL (11726364_x_at) / Fold change /veh OASL (11726364_x_at) / RFU SOX15 (11748057_x_at) / Fold change /veh SOX15 (11748057_x_at) / RFU CD79A (11719716_a_at) / Fold change /veh CD79A (11719716_a_at) / RFU HIST1H1D (11736915_at) / Fold change /veh HIST1H1D (11736915_at) / RFU CASKIN2 (11723855_a_at) / Fold change /veh CASKIN2 (11723855_a_at) / RFU LOC730098 (11760151_x_at) / Fold change /veh LOC730098 (11760151_x_at) / RFU OR4N2 (11742367_at) / Fold change /veh OR4N2 (11742367_at) / RFU PRRT2 (11749266_a_at) / Fold change /veh PRRT2 (11749266_a_at) / RFU SNX32 (11753110_a_at) / Fold change /veh SNX32 (11753110_a_at) / RFU CDHR5 (11726645_a_at) / Fold change /veh CDHR5 (11726645_a_at) / RFU RCAN1 (11760418_a_at) / Fold change /veh RCAN1 (11760418_a_at) / RFU FAM167A (11723789_a_at) / Fold change /veh FAM167A (11723789_a_at) / RFU FAM26E (11764081_at) / Fold change /veh FAM26E (11764081_at) / RFU ISYNA1 (11749810_s_at) / Fold change /veh ISYNA1 (11749810_s_at) / RFU ACY1 (11761880_at) / Fold change /veh ACY1 (11761880_at) / RFU 11764098_at / Fold change /veh 11764098_at / RFU SAMD14 (11745864_x_at) / Fold change /veh SAMD14 (11745864_x_at) / RFU NPB (11741838_a_at) / Fold change /veh NPB (11741838_a_at) / RFU TMPRSS6 (11731388_a_at) / Fold change /veh TMPRSS6 (11731388_a_at) / RFU KRTAP10-2 (11738614_at) / Fold change /veh KRTAP10-2 (11738614_at) / RFU ARHGAP8 /// PRR5-ARHGAP8 (11727945_x_at) / Fold change /veh ARHGAP8 /// PRR5-ARHGAP8 (11727945_x_at) / RFU KRTAP5-7 /// NADSYN1 (11734609_at) / Fold change /veh KRTAP5-7 /// NADSYN1 (11734609_at) / RFU RASL12 (11751679_a_at) / Fold change /veh RASL12 (11751679_a_at) / RFU CDKN2B (11736163_a_at) / Fold change /veh CDKN2B (11736163_a_at) / RFU PRF1 (11729649_at) / Fold change /veh PRF1 (11729649_at) / RFU, ZNF638 /// ZNF638-IT1 / Fold change vs veh, ZNF638 /// ZNF638-IT1 / RFU, PANK3 / Fold change vs veh, PANK3 / RFU, SH3YL1 / Fold change vs veh, SH3YL1 / RFU, ZEB2 / Fold change vs veh, ZEB2 / RFU, NRIP1 / Fold change vs veh, NRIP1 / RFU, PTTG1IP / Fold change vs veh, PTTG1IP / RFU, CAPN2 / Fold change vs veh, CAPN2 / RFU, MED14 / Fold change vs veh, MED14 / RFU, SNORA58 / Fold change vs veh, SNORA58 / RFU, C1orf63 / Fold change vs veh, C1orf63 / RFU, LRRFIP1 / Fold change vs veh, LRRFIP1 / RFU, NDUFAF7 / Fold change vs veh, NDUFAF7 / RFU, SLC12A2 / Fold change vs veh, SLC12A2 / RFU, IBTK / Fold change vs veh, IBTK / RFU, ESF1 / Fold change vs veh, ESF1 / Fold change vs veh, TMEM50B / RFU, TAOK1 / Fold change vs veh, TAOK1 / RFU, ACBD3 / Fold change vs veh, ACBD3 / RFU, TMA16 / Fold change vs veh, TMA16 / RFU, RWDD3 / Fold change vs veh, RWDD3 / RFU, BCAT1 / Fold change vs veh, BCAT1 / RFU, EDEM3 / Fold change vs veh, EDEM3 / RFU, TMEM33 / Fold change vs veh, TMEM33 / RFU, WDR75 / Fold change vs veh, WDR75 / RFU, AHCTF1 / Fold change vs veh, AHCTF1 / RFU, TFRC / Fold change vs veh, TFRC / RFU, ZDHHC17 / Fold change vs veh, ZDHHC17 / RFU, NOM1 / Fold change vs veh, NOM1 / RFU, ARL8B / Fold change vs veh, ARL8B / RFU, ZBTB11 / Fold change vs veh, ZBTB11 / RFU, TAMM41 / Fold change vs veh, TAMM41 / RFU, KIAA1704 /// LOC100996395 / Fold change vs veh, KIAA1704 /// LOC100996395 / RFU, ING1 / Fold change vs veh, ING1 / RFU, TRMT61B / Fold change vs veh, TRMT61B / RFU, FUBP3 / Fold change vs veh, FUBP3 / RFU, TP53 / Fold change vs veh, TP53 / RFU, TNKS2 / Fold change vs veh, TNKS2 / RFU, ZFP14 / Fold change vs veh, ZFP14 / RFU, ACTR2 / Fold change vs veh, ACTR2 / RFU, PPP3R1 / Fold change vs veh, PPP3R1 / RFU, PIK3R1 / Fold change vs veh, PIK3R1 / RFU, HNRNPA1 / Fold change vs veh, HNRNPA1 / RFU, RNF170 / Fold change vs veh, RNF170 / RFU, ZNF28 / Fold change vs veh, ZNF28 / RFU, RNGTT / Fold change vs veh, RNGTT / RFU, OGT / Fold change vs veh, OGT / RFU, BRD1 / Fold change vs veh, BRD1 / RFU, MARS / Fold change vs veh, MARS / RFU, ZNF655 / Fold change vs veh, ZNF655 / RFU, FAHD1 / Fold change vs veh, FAHD1 / RFU, BDP1 / Fold change vs veh, BDP1 / RFU, LRRCC1 / Fold change vs veh, LRRCC1 / RFU, ARID1A / Fold change vs veh, ARID1A / RFU, ZNF146 / Fold change vs veh, ZNF146 / RFU, ZNF330 / Fold change vs veh, ZNF330 / RFU, GPN3 / Fold change vs veh, GPN3 / RFU, C9orf123 / Fold change vs veh, C9orf123 / RFU, N4BP2L2 / Fold change vs veh, N4BP2L2 / RFU, ARFIP1 / Fold change vs veh, ARFIP1 / RFU, FAM179B / Fold change vs veh, FAM179B / RFU, BCL10 / Fold change vs veh, BCL10 / RFU, UHRF1BP1L / Fold change vs veh, UHRF1BP1L / RFU, BET1 / Fold change vs veh, BET1 / RFU, CNOT2 / Fold change vs veh, CNOT2 / RFU, ZNF268 / Fold change vs veh, ZNF268 / Fold change vs veh, ZNF507 / RFU, DGCR2 / Fold change vs veh, DGCR2 / RFU, WDSUB1 / Fold change vs veh, WDSUB1 / Fold change vs veh, HSP90B1 /// MIR3652 / RFU, ADSS / Fold change vs veh, ADSS / RFU, GK / Fold change vs veh, GK / RFU, ZNF148 / Fold change vs veh, ZNF148 / RFU, TAF9 / Fold change vs veh, TAF9 / RFU, SLC1A5 / Fold change vs veh, SLC1A5 / RFU, SLMO2 / Fold change vs veh, SLMO2 / RFU, ABCC4 / Fold change vs veh, ABCC4 / RFU, LOC101060439 /// RAP1B / Fold change vs veh, LOC101060439 /// RAP1B / RFU, RFX7 / Fold change vs veh, RFX7 / RFU, GTPBP10 / Fold change vs veh, GTPBP10 / RFU, CNEP1R1 / Fold change vs veh, CNEP1R1 / RFU, BIVM-ERCC5 /// ERCC5 / Fold change vs veh, BIVM-ERCC5 /// ERCC5 / RFU, ILF3 / Fold change vs veh, ILF3 / RFU 11762660_at / Fold change /veh 11762660_at / RFU VCAN (11757783_s_at) / Fold change /veh VCAN (11757783_s_at) / RFU DDX43 (11728927_at) / Fold change /veh DDX43 (11728927_at) / RFU KRT8 (11758188_x_at) / Fold change /veh KRT8 (11758188_x_at) / RFU NKD1 (11759106_at) / Fold change /veh NKD1 (11759106_at) / RFU SRD5A1 (11742802_a_at) / Fold change /veh SRD5A1 (11742802_a_at) / RFU TPSAB1 /// TPSB2 (11721975_s_at) / Fold change /veh TPSAB1 /// TPSB2 (11721975_s_at) / RFU GSTM3 (11746129_a_at) / Fold change /veh GSTM3 (11746129_a_at) / RFU IL23R (11737362_x_at) / Fold change /veh IL23R (11737362_x_at) / RFU TMEM51 (11727254_a_at) / Fold change /veh TMEM51 (11727254_a_at) / RFU PIWIL2 (11732686_x_at) / Fold change /veh PIWIL2 (11732686_x_at) / RFU ORM1 (11744905_x_at) / Fold change /veh ORM1 (11744905_x_at) / RFU CCDC152 (11743942_at) / Fold change /veh CCDC152 (11743942_at) / RFU ECM1 (11717891_a_at) / Fold change /veh ECM1 (11717891_a_at) / RFU IL23R (11748794_a_at) / Fold change /veh IL23R (11748794_a_at) / RFU TNFAIP8L3 (11732012_x_at) / Fold change /veh TNFAIP8L3 (11732012_x_at) / RFU MBOAT4 (11741988_at) / Fold change /veh MBOAT4 (11741988_at) / RFU 11764193_at / Fold change /veh 11764193_at / RFU TMEM53 (11763286_at) / Fold change /veh TMEM53 (11763286_at) / RFU MAGEB2 (11727129_at) / Fold change /veh MAGEB2 (11727129_at) / RFU TMEM200A (11744735_a_at) / Fold change /veh TMEM200A (11744735_a_at) / RFU CCDC152 (11751479_a_at) / Fold change /veh CCDC152 (11751479_a_at) / RFU FAM211A (11726209_a_at) / Fold change /veh FAM211A (11726209_a_at) / RFU RGS16 (11746705_a_at) / Fold change /veh RGS16 (11746705_a_at) / RFU VCAN (11755009_s_at) / Fold change /veh VCAN (11755009_s_at) / RFU RHOB (11743442_s_at) / Fold change /veh RHOB (11743442_s_at) / RFU RGS16 (11720943_a_at) / Fold change /veh RGS16 (11720943_a_at) / RFU RGS16 (11720944_at) / Fold change /veh RGS16 (11720944_at) / RFU, VPS4B / Fold change vs veh, VPS4B / RFU, CREB1 / Fold change vs veh, CREB1 / RFU, DNAJC13 / Fold change vs veh, DNAJC13 / RFU, GNAQ / Fold change vs veh, GNAQ / RFU, CDK5R1 / Fold change vs veh, CDK5R1 / RFU, ZRANB3 / Fold change vs veh, ZRANB3 / RFU, CUL4A / Fold change vs veh, CUL4A / RFU, CCNY / Fold change vs veh, CCNY / RFU, UFL1 / Fold change vs veh, UFL1 / RFU, COG3 / Fold change vs veh, COG3 / RFU, DIAPH2 / Fold change vs veh, DIAPH2 / RFU, SKA2 / Fold change vs veh, SKA2 / RFU, AFF3 / Fold change vs veh, AFF3 / RFU, LMF1 / Fold change vs veh, LMF1 / RFU, IPO11 / Fold change vs veh, IPO11 / RFU, DFFB / Fold change vs veh, DFFB / RFU, FOXP1 / Fold change vs veh, FOXP1 / RFU, CARD8 / Fold change vs veh, CARD8 / RFU, STRN3 / Fold change vs veh, STRN3 / RFU, ADK / Fold change vs veh, ADK / RFU, RASSF2 / Fold change vs veh, RASSF2 / RFU, WIPF1 / Fold change vs veh, WIPF1 / RFU, LARP1B / Fold change vs veh, LARP1B / RFU, RASA1 / Fold change vs veh, RASA1 / RFU, RB1 / Fold change vs veh, RB1 / RFU, PPFIA1 / Fold change vs veh, PPFIA1 / RFU, MAT2A / Fold change vs veh, MAT2A / RFU, CCT5 / Fold change vs veh, CCT5 / RFU, WDR92 / Fold change vs veh, WDR92 / RFU, CUX1 / Fold change vs veh, CUX1 / RFU, TTC7A / Fold change vs veh, TTC7A / RFU, TMEM135 / Fold change vs veh, TMEM135 / RFU, DEPTOR / Fold change vs veh, DEPTOR / RFU, CPM / Fold change vs veh, CPM / RFU, DNAJB6 / Fold change vs veh, DNAJB6 / RFU, CACNA2D3 / Fold change vs veh, CACNA2D3 / RFU, DTX4 / Fold change vs veh, DTX4 / RFU, TFCP2 / Fold change vs veh, TFCP2 / RFU, GMCL1 /// GMCL1P1 / Fold change vs veh, GMCL1 /// GMCL1P1 / RFU, AEBP2 / Fold change vs veh, AEBP2 / RFU, SNHG1 /// SNORD22 /// SNORD25 /// SNORD26 /// SNORD27 /// SNORD28 /// SNORD29 /// SNORD31 / Fold change vs veh, SNHG1 /// SNORD22 /// SNORD25 /// SNORD26 /// SNORD27 /// SNORD28 /// SNORD29 /// SNORD31 / Fold change (Aza/veh), C12orf56 (ProbeSet 11735607_a_at) / Fold change (ACY-1035/veh), C12orf56 (ProbeSet 11735607_a_at) / Fold change (Aza/veh), FGFR1OP (ProbeSet 11751329_s_at) / Fold change (ACY-1035/veh), FGFR1OP (ProbeSet 11751329_s_at) / Fold change (Aza/veh), VPS36 (ProbeSet 11739960_a_at) / Fold change (ACY-1035/veh), VPS36 (ProbeSet 11739960_a_at) / RFU SYPL1 (11715823_x_at) / Fold change /veh SYPL1 (11715823_x_at) / RFU IGFBP7 (11715501_s_at) / Fold change /veh IGFBP7 (11715501_s_at) / RFU REEP3 (11722064_at) / Fold change /veh REEP3 (11722064_at) / RFU IGLL1 (11728026_x_at) / Fold change /veh IGLL1 (11728026_x_at): dose or concentration left out as unconfirmed
Conditions: ProbeSet 11746640_a_at; LIST D

Compound: Nc1ccc(-c2cccs2)cc1NC(=O)c1ccc2c(c1)cc(C1CC1)n2CCN1CCOCC1 [ACY-1035]
- Fold change vs veh, RASSF2: 0.86
